Experimental data published in ChEMBL document CHEMBL4811292, “Discovery of novel β-turn mimetic-based peptides as novel quorum sensing inhibitors of gram-negative bacteria” (Bioorg Med Chem Lett, 2021).
Converted amounts (≈) assume the structure as drawn. The source made the active and inactive calls. The rule behind the calls is not given here.

How the values were obtained:
[1] = Inhibition of quorum sensing system in Chromobacterium violaceum ATCC 31532 assessed as reduction in violacein production at <100 uM; settings: dose microM <100
[2] = system: Staphylococcus epidermidis; experiment: Inhibition of quorum sensing system in Staphylococcus epidermidis
Pseudomonas aeruginosa [3] = experiment: Antibacterial activity against Pseudomonas aeruginosa assessed as inhibition of cell growth; assay type: functional
[4] = Inhibition of quorum sensing system lasB in Pseudomonas aeruginosa transfected with lasB-gfp assessed as reduction of GFP production
[5] = Inhibition of quorum sensing system in Chromobacterium violaceum ATCC 31532 assessed as reduction in violacein production at 100 uM
Pseudomonas aeruginosa [6] = experiment: Antibiofilm activity against Pseudomonas aeruginosa PA14 assessed as inhibition of biofilm formation at 50 uM measured after 48 hrs relative to control; assay type: functional
Pseudomonas aeruginosa [7] = experiment: Inhibition of quorum sensing system lasB in Pseudomonas aeruginosa transfected with lasB-gfp assessed as reduction of GFP production at 10 to 15 uM; settings: dose 10-15 µM
Pseudomonas aeruginosa [8] = experiment: Potency index, ratio of 4NPO IC50 to test compound IC50 for inhibition of quorum sensing system lasB in Pseudomonas aeruginosa transfected with lasB-gfp
Pseudomonas aeruginosa [9] = experiment: Antibiofilm activity against Pseudomonas aeruginosa PA14 assessed as inhibition of biofilm formation at 15 to 50 uM measured after 48 hrs; assay type: functional, organism-based; settings: dose 15-50 µM
Pseudomonas aeruginosa [10] = experiment: Antibiofilm activity against Pseudomonas aeruginosa PA14 assessed as inhibition of biofilm formation at 15 to 50 uM measured after 48 hrs relative to control; assay type: functional; settings: dose 15-50 µM
Pseudomonas aeruginosa [11] = experiment: Inhibition of quorum sensing system lasB in Pseudomonas aeruginosa transfected with lasB-gfp assessed as reduction of GFP production at 10 uM
Pseudomonas aeruginosa [12] = experiment: Inhibition of quorum sensing system lasB in Pseudomonas aeruginosa transfected with lasB-gfp assessed as reduction of GFP production at 5 uM

Cc1ccc(N2CC(=O)N3[C@@H](CC(C)C)C(=O)N(Cc4ccco4)C[C@@H]3N2C(=O)NCc2ccccc2)cc1
inhibition [1]: inactive
inhibition [2]: inactive
MIC (Pseudomonas aeruginosa [3]): > 150 µM
IC50 ([4]; read-out: IC50): 12 µM
inhibition [5]: 52%
inhibition at 50 µM (Pseudomonas aeruginosa [6]): 80%
inhibition (Pseudomonas aeruginosa [7]): Active
Ratio IC50 (Pseudomonas aeruginosa [8]): 2

CCCCN1C[C@H]2N(C(=O)CN(c3ccc(C)cc3)N2C(=O)NCc2ccccc2)[C@@H](Cc2ccc(Cl)cc2)C1=O
inhibition [1]: inactive
inhibition [2]: inactive
MIC (Pseudomonas aeruginosa [3]): 100 µM (≈ 57.4 µg/mL)
IC50 [4]: Not Active
inhibition [5]: 12%

O=[N+]([O-])c1cc[n+]([O-])cc1
IC50 ([4]; read-out: IC50): 27 µM
inhibition [5]: 66%
inhibition (Pseudomonas aeruginosa [9]): Active

CCCCN1C[C@H]2N(C(=O)CN(c3ccc(C)cc3)N2C(=O)NCc2ccccc2)[C@@H](C(C)C)C1=O
inhibition [1]: inactive
inhibition [2]: inactive
MIC (Pseudomonas aeruginosa [3]): > 150 µM
IC50 [4]: Not Active
inhibition [5]: 21%

C=CCNC(=O)N1[C@H]2CN(Cc3ccccc3)C(=O)[C@H](C(C)CC)N2C(=O)CN1c1ccc(C)cc1 (some centres not stated)
inhibition [1]: inactive
inhibition [2]: inactive
MIC (Pseudomonas aeruginosa [3]): > 100 µM
IC50 ([4]; read-out: IC50): 7 µM
inhibition [5]: 49%
inhibition (INH) (Pseudomonas aeruginosa [10]): 20%
inhibition (Pseudomonas aeruginosa [11]): Active
Ratio IC50 (Pseudomonas aeruginosa [8]): 2

C=CCNC(=O)N1[C@H]2CN(Cc3ccccc3)C(=O)[C@H](Cc3ccccc3)N2C(=O)CN1c1ccc(C)cc1
inhibition [1]: inactive
inhibition [2]: inactive
MIC (Pseudomonas aeruginosa [3]): > 100 µM
IC50 ([4]; read-out: IC50): 4 µM
inhibition [5]: 62%
inhibition (INH) (Pseudomonas aeruginosa [10]): 80%
inhibition (Pseudomonas aeruginosa [12]): Active
Ratio IC50 (Pseudomonas aeruginosa [8]): 2
